Laboratory results from PMC7938888, “Antidepressant drugs act by directly binding to TRKB neurotrophin receptors” (Cell, 2021).
“Also recorded” adds a separate entry of the source.

Columns and labels:
TRKB = TRKB (Mus musculus, UniProt P15209); assay: Cell-free ligand binding assay on immobilised TRKB from HEK293T lysates; set-up: wild-type GFP-tagged full length TRKB or the GFP-tagged Y433F TRKB mutant; host or cells: HEK293T; settings: for displacement of biotinylated FLX from TRKB: biotinylated FLX 1 μM
Chain of TRKB (P15209 32-821): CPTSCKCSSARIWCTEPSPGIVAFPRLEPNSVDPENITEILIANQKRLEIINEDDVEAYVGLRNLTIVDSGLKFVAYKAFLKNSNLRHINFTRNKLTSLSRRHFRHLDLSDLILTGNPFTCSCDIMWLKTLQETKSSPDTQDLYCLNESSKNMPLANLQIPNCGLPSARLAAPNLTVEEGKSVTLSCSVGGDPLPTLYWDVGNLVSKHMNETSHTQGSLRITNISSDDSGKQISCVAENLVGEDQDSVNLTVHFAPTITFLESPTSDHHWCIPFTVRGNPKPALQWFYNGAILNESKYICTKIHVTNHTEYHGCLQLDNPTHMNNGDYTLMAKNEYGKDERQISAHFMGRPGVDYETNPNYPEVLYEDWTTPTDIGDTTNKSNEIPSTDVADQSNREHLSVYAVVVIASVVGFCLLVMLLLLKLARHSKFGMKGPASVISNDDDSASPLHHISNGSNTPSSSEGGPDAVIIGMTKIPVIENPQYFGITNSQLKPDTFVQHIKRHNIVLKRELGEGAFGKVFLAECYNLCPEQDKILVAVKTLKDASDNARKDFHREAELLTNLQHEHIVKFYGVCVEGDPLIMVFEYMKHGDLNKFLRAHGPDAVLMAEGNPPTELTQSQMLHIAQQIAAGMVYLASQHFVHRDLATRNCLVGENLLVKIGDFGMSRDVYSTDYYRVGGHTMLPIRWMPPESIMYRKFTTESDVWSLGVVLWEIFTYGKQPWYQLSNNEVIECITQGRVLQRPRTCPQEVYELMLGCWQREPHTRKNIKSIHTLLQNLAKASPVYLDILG
Description: (§1) The cell-free assays (binding assays) were performed in white 96-well plates, based on the protocol used for western-blotting or ELISA ([Baeza-Raja et al., 2016]; [Das et al., 2015]). The plates were precoated with anti-GFP, anti-FLAG, anti-TRK or anti-TRKB antibody (1:1000) in carbonate buffer (pH 9.8), ON at 4°C. Following blocking with 3% BSA in PBS buffer (2 h at RT), 120 ug of total protein from each sample (of lysates from HEK293T cells transfected to overexpress GFP-TRKB.wt or GFP-TRKB.Y433F) were added and incubated overnight at 4°C under agitation. […] The luminescence was determined via HRP-conjugated streptavidin (1:10000, 1h, RT) activity reaction with ECL by a plate reader. The luminescence signal from blank wells (containing all the reagents but the sample lystates, substituted by the blocking buffer) was used as background. The specific signal was then calculated by subtracting the values of blank wells from the values of the samples with matched concentration of the biotinylated ligand. For Figure 2E, the precipitated TRKB.wt or Y433F was incubated with tritiated imipramine (0-30μM) and the radioactive emission of the ligand was determined by scintillation (OptiPhase Supermix cocktail: #1200-439; MicroBeta2, Perkin-Elmer). The scintillation signal from blank wells was used as background, and the specific signal was then calculated by subtracting the values of blank wells from the values of the samples with matched concentration of the radioactive ligand.

[1] = system: TRKB autophosphorylation (TRKB:pY); assay: TRKB:pY ELISA in cultured cortical cells; assay type: cell-based, rat; settings: for rescue of BDNF-induced pTRKB response under high CHOL: cholesterol 50 μM, drug 10 μM 15 min, BDNF 10 ng/ml 15 min
Description: (§2) The TRKB:pY (phosphorylated TRKB), TRKB:PLC-γ1, PLC-γ1:pTRKB.Y816 interactions and were determined by ELISA, based on the general method described in literature ([Antila et al., 2014]; [Fred et al., 2019]), with minor adjustments. Briefly, white 96-well plates (OptiPlate 96F-HB, Perkin Elmer) were coated with capturing anti-TRKB or PLC-γ1 antibody (1:1000) in carbonate buffer (pH = 9.8) overnight (ON) at 4°C. Following a blocking step with 2%BSA in TBS-T (2 h, RT), samples were incubated ON at 4°C. The incubation with antibody against pTRKB.Y816, PLC-γ1 or pY (1:2000, ON, 4°C) was followed by HRP-conjugated anti-Rb IgG (1:5000, 2h, RT) or HRP-conjugated streptavidin (1:10000, 2h, RT). Finally, the chemiluminescent signal generated by the reaction with ECL was analyzed in a plate reader (Varioskan Flash, Thermo Scientific).

[2] = molecular target: GFP-tagged TRKB mutated at Y433 (GFP-TRKB.Y433F) (UniProt P15209); assay: ELISA; cell-free ligand binding assay in white 96-well plates: GFP-TRKB from 120 ug HEK293T lysate captured on antibody-coated wells (anti-GFP or anti-TRKB), washed, ligand added; read-out by HRP-streptavidin and ECL as told for biotinylated ligands; the conditions for BDNF are not told
Chain of GFP-tagged TRKB mutated at Y433 (GFP-TRKB.Y433F) (P15209 32-821 Y433F): as the sequence (P15209 32-821) above, with Y402F counted along it

[3] = molecular target: GFP-tagged TRKB wild type (GFP-TRKB.wt), neurotrophic tyrosine kinase receptor 2 (UniProt P15209); assay: as above
Chain of GFP-tagged TRKB wild type (GFP-TRKB.wt), neurotrophic tyrosine kinase receptor 2 (P15209 32-821): as the sequence (P15209 32-821) above

[4] = system: GluR1 subunit of AMPA receptors; assay: Surface GluR1 ELISA in rat cortical cells; assay type: cell-based; settings: TRKB inhibitors
Description: Briefly, the MG87.TRKB cells or primary cortical cells from rat or mouse embryos, cultivated in clear bottom 96-well plates (ViewPlate 96, Perkin Elmer), were washed with ice-cold PBS and fixed with 100μl of 4% PFA per well. […] Following washing, the samples were incubated with HRP-conjugated anti-goat or anti-rabbit IgG (1:5000 in blocking buffer) for 1h at RT. The cells were washed 4x with 200μl of PBS for 10 min each. Finally, the chemiluminescent signal generated by reaction with ECL was analyzed in a plate reader.

TRKB.Y433F = molecular target: T1, TRKB.Y433F (Mus musculus, UniProt P15209, Y433F); assay: Cell-free ligand binding assay, TRKB.Y433F mutant; settings: tritiated imipramine, biotinylated R,R-HNK
T1 construct: wild-type GFP-tagged full length TRKB or the GFP-tagged Y433F TRKB mutant; host or cells: HEK293T
T1 sequence (P15209 32-821 Y433F): as the sequence (P15209 32-821) above, with Y402F counted along it
Description: as §1

TRKB:PLC-γ1 interaction [5] = assay: TRKB:PLC-γ1 interaction ELISA in cortical cells; assay type: cell-based, rat
Description: as §2

TRKB:PLC-γ1 interaction [6] = assay: TRKB:PLC-γ1 interaction ELISA in MG87 cells expressing TRKB; assay type: cell-based, mouse; settings: bCDX 2 mM/30 min pre-treatment
Description: The cell line NIH 3T3 (mouse fibroblasts) stably transfected to express TRKB or TRKA (MG87.TRKB or MG87.TRKA, respectively) were used for in vitro assays ([Antila et al., 2014]), N2A and HEK293T cells were used to overexpress GFP-tagged TRKB for binding assays. The cells were maintained at 5% CO2, 37°C in Dulbecco’s Modified Eagle’s Medium (DMEM, containing 10% fetal calf serum, 1% penicillin/streptomycin, 1% L-glutamine, and, in the case of MG87.TRKB cells, with […] of G418). The cell lines used in the present study were not authenticated or genotyped for sex.
as §2, with “The incubation with antibody against pTRKB.Y816, PLC-γ1 or pY (1:2000, ON, 4°C) was followed by HRP-conjugated anti-Rb IgG (1:5000, 2h, RT) or HRP-conjugated streptavidin (1:10000, 2h, RT).” left out

surface TRKB = assay: Surface TRKB ELISA in primary cortical neurons; assay type: cell-based, rat
Description: The surface levels of TRKB were also determined by ELISA ([Zheng et al., 2008]). Briefly, the MG87.TRKB cells or primary cortical cells from rat or mouse embryos, cultivated in clear bottom 96-well plates (ViewPlate 96, Perkin Elmer), were washed with ice-cold PBS and fixed with 100μl of 4% PFA per well. After washing with PBS and blocking with PBS containing 5% nonfat dry milk and 5% BSA, the samples were incubated with primary anti-TRKB antibody (R&D Systems, #AF1494, 1:1000 in blocking buffer) or anti-GluR1 subunit of AMPA receptors (CST, #8850, 1:2000 in blocking buffer) ON at 4°C. Following washing, the samples were incubated with HRP-conjugated anti-goat or anti-rabbit IgG (1:5000 in blocking buffer) for 1h at RT. The cells were washed 4x with 200μl of PBS for 10 min each. Finally, the chemiluminescent signal generated by reaction with ECL was analyzed in a plate reader.

N[C@]1(c2ccccc2Cl)CCC[C@H](O)C1=O [S,S-HNK, 2S,6S-HNK]
displacement of biotinylated FLX from TRKB (TRKB): weak, if any, displacement | displacement of bound R,R-HNK from TRKB (TRKB; biotinylated R,R-HNK 1 μM): failed to displace

CN(C)CCOC(c1ccccc1)c1ccccc1 [diphenhydramine]
displacement of biotinylated FLX from TRKB (TRKB): weak, if any, displacement

O=c1[nH]c2ccccc2n1C1CCN(CCCC(c2ccc(F)cc2)c2ccc(F)cc2)CC1 [pimozide]
rescue of BDNF-induced pTRKB response under high CHOL [1]: failed to rescue

brain-derived neurotrophic factor (BDNF), biotinylated rh-BDNF (ligand)
Kd [2]: 2.9 pM | Kd [3]: 3.1 pM

COc1ccc(C(CN(C)C)C2(O)CCCCC2)cc1 (stereo not drawn) [venlafaxine]
Ki (TRKB): 2080 nM | displacement of biotinylated FLX from TRKB (TRKB): readily displaced

COC(=O)[C@@]1(O)C[C@H]2O[C@]1(C)n1c3ccccc3c3c4c(c5c6ccccc6n2c5c31)C(=O)NC4 [k252a]
effect on FLX- and R,R-HNK-induced increase in surface GluR1 [4]: prevented

CN(C)CCCN1c2ccccc2CCc2ccccc21 [imipramine]
affinity to TRKB.Y433F compared with wild-type TRKB (TRKB.Y433F): much lower than to the wild-type TRKB | TRKB interaction with PLC-γ1 (TRKB:PLC-γ1 interaction [5]; rat cortical cells): increased TRKB interaction with PLC-γ1 | Ki (TRKB): 1030 nM

O=C(Nc1ccccc1C(=O)NC1CCCCNC1=O)c1cc2ccccc2s1 (stereo not drawn) [ANA12]
effect on FLX- and R,R-HNK-induced increase in surface GluR1 [4]: prevented

OC[C@H]1O[C@@H]2O[C@H]3[C@H](O)[C@@H](O)[C@@H](O[C@H]4[C@H](O)[C@@H](O)[C@@H](O[C@H]5[C@H](O)[C@@H](O)[C@@H](O[C@H]6[C@H](O)[C@@H](O)[C@@H](O[C@H]7[C@H](O)[C@@H](O)[C@@H](O[C@H]8[C@H](O)[C@@H](O)[C@@H](O[C@H]1[C@H](O)[C@H]2O)O[C@@H]8CO)O[C@@H]7CO)O[C@@H]6CO)O[C@@H]5CO)O[C@@H]4CO)O[C@@H]3CO [βCDX, beta-cyclodextrin]
effect on block of BDNF-induced pTRKB by high cholesterol ([1]; bCDX 30 min, cholesterol 100 μM/15 min, BDNF 10 ng/ml/15 min): reverses the block | effect on BDNF-induced increase in TRKB-PLC-γ1 interaction (TRKB:PLC-γ1 interaction [5]; bCDX 2 mM, 30 min): prevents | effect on antidepressant-induced TRKB:PLC-γ1 interaction (TRKB:PLC-γ1 interaction [5]; bCDX 2 mM/30 min pretreatment, FLX, imipramine, KET, R,R-HNK): blocked | blockade of CHOL effect on TRKB:PLC-γ1 interaction (TRKB:PLC-γ1 interaction [6]): blocked | effect on fluoxetine-induced increase in TRKB surface exposure (surface TRKB): blocked

CN[C@]1(c2ccccc2Cl)CCCCC1=O [esketamine, S-ketamine]
Ki (TRKB): 2860 nM

CC(C)NCC(O)c1ccc(O)c(O)c1 (stereo not drawn) [isoproterenol]
displacement of biotinylated FLX from TRKB (TRKB): weak, if any, displacement

OCCN1CCN(CCC=C2c3ccccc3Sc3ccc(C(F)(F)F)cc32)CC1 [flupenthixol]
rescue of BDNF-induced pTRKB response under high CHOL [1]: failed to rescue

CN(C)CCCN1c2ccccc2Sc2ccc(Cl)cc21 [chlorpromazine]
rescue of BDNF-induced pTRKB response under high CHOL [1]: failed to rescue | displacement of biotinylated FLX from TRKB (TRKB): weak, if any, displacement; also recorded: failed to displace

O=C(NCCN1CCOCC1)c1ccc(Cl)cc1 [moclobemide]
Ki (TRKB): 1510 nM
